Results taken from ChEMBL document CHEMBL4152338, “Design, synthesis and screening of 1, 2, 4-triazinone derivatives as potential antitumor agents with apoptosis inducing activity on MCF-7 breast cancer cell line” (Eur J Med Chem, 2018).
Active and inactive are the calls of the source. No cut-off for these calls is given here.

Columns and labels:
MCF7 [1] = experiment: Antiproliferative activity against human MCF7 cells after 48 hrs by MTT assay; assay type: functional, cell-based; details: MCF7, 48 h
MCF7 [2] = experiment: Induction of apoptosis in human MCF7 cells assessed as early apoptotic cells at IC50 after 24 hrs by annexin V/FITC-propidium iodide staining-based flow cytometric method (reference value: 0.72%); assay type: functional
MCF7 [3] = experiment: Inhibition of tubulin beta polymerization in human MCF7 cells at IC50 after 18 to 24 hrs by spectrophotometric method relative to control; assay type: cell-based
DNA topoisomerase 2-beta [4] = target: T1, DNA topoisomerase 2-beta (Homo sapiens, UniProt Q02880); experiment: Inhibition of human DNA topoisomerase 2beta after 2 hrs by ELISA
MCF7 [5] = experiment: Induction of apoptosis in human MCF7 cells assessed as viable cells at IC50 after 24 hrs by annexin V/FITC-propidium iodide staining-based flow cytometric method (reference value: 96.57%); assay type: functional
MCF7 [6] = experiment: Upregulation of p53 level in human MCF7 cells at IC50 incubated for 24 hrs by ELISA relative to control; assay type: functional
MCF7 [7] = experiment: Induction of apoptosis in human MCF7 cells assessed as necrotic cells at IC50 after 24 hrs by annexin V/FITC-propidium iodide staining-based flow cytometric method (reference value: 0.53%); assay type: functional
MCF7 [8] = experiment: Induction of apoptosis in human MCF7 cells assessed as late apoptotic cells at IC50 after 24 hrs by annexin V/FITC-propidium iodide staining-based flow cytometric method (reference value: 0.34%); assay type: functional
[9] = Antiproliferative activity against human Hs 371.T cells after 48 hrs by MTT assay; assay type: cell-based
MCF7 [10] = experiment: Upregulation of caspase3/7 level in human MCF7 cells at IC50 assessed as caspase 3/7 green fluorescence incubated for 24 hrs by green flow cytometric analysis (reference value: 0.49%); assay type: functional
MCF7 [11] = experiment: Upregulation of caspase3/7 level in human MCF7 cells at IC50 incubated for 24 hrs by green flow cytometric analysis relative to control; assay type: functional
MCF7 [12] = experiment: Upregulation of Bax level in human MCF7 cells at IC50 incubated for 24 hrs by ELISA relative to control; assay type: functional
MCF7 [13] = experiment: Down regulation of Bcl-2 level in human MCF7 cells at IC50 incubated for 24 hrs by ELISA; assay type: functional, cell-based
DNA topoisomerase 2-beta [14] = target: T1, DNA topoisomerase 2-beta; experiment: Potency index, ratio of etopside IC50 to compound IC50 for topoisomerase 2beta in human MCF7 cells; assay type: cell-based
MCF7 [15] = experiment: Upregulation of p53 level in human MCF7 cells at IC50 incubated for 24 hrs by ELISA relative to podophyllotoxin; assay type: functional
MCF7 [16] = experiment: Potency index, ratio of ratio of compound effect to podophyllotoxin efect for induction of apoptosis in human MCF7 cells; assay type: functional
MCF7 [17] = experiment: Increase in Bax/Bcl-2 ratio in human MCF7 cells at IC50 incubated for 24 hrs by ELISA; assay type: functional, cell-based
MCF7 [18] = experiment: Potency index, ratio of podophyllotoxin IC50 to compound IC50 for human MCF7 cells; assay type: functional
MCF7 [19] = experiment: Cell cycle arrest in human MCF7 cells assessed as increase in accumulation at G0 phase at IC50 after 24 hrs by propidium iodide staining-based flow cytometric analysis; assay type: functional
MCF7 [20] = experiment: Cell cycle arrest in human MCF7 cells assessed as decrease in accumulation at G1 phase at IC50 after 24 hrs by propidium iodide staining-based flow cytometric analysis; assay type: functional
MCF7 [21] = experiment: Cell cycle arrest in human MCF7 cells assessed as accumulation at G2 phase at IC50 after 24 hrs by propidium iodide staining-based flow cytometric analysis; assay type: functional
MCF7 [22] = experiment: Potency index, ratio of ratio of compound effect to podophyllotoxin efect for cell cycle arrest in human MCF7 cells assessed as increase in cell percentage at G0 phase at IC50 after 24 hrs by propidium iodide staining-based flow cytometric analysis; assay type: functional

T1 sequence (Q02880 whole entry): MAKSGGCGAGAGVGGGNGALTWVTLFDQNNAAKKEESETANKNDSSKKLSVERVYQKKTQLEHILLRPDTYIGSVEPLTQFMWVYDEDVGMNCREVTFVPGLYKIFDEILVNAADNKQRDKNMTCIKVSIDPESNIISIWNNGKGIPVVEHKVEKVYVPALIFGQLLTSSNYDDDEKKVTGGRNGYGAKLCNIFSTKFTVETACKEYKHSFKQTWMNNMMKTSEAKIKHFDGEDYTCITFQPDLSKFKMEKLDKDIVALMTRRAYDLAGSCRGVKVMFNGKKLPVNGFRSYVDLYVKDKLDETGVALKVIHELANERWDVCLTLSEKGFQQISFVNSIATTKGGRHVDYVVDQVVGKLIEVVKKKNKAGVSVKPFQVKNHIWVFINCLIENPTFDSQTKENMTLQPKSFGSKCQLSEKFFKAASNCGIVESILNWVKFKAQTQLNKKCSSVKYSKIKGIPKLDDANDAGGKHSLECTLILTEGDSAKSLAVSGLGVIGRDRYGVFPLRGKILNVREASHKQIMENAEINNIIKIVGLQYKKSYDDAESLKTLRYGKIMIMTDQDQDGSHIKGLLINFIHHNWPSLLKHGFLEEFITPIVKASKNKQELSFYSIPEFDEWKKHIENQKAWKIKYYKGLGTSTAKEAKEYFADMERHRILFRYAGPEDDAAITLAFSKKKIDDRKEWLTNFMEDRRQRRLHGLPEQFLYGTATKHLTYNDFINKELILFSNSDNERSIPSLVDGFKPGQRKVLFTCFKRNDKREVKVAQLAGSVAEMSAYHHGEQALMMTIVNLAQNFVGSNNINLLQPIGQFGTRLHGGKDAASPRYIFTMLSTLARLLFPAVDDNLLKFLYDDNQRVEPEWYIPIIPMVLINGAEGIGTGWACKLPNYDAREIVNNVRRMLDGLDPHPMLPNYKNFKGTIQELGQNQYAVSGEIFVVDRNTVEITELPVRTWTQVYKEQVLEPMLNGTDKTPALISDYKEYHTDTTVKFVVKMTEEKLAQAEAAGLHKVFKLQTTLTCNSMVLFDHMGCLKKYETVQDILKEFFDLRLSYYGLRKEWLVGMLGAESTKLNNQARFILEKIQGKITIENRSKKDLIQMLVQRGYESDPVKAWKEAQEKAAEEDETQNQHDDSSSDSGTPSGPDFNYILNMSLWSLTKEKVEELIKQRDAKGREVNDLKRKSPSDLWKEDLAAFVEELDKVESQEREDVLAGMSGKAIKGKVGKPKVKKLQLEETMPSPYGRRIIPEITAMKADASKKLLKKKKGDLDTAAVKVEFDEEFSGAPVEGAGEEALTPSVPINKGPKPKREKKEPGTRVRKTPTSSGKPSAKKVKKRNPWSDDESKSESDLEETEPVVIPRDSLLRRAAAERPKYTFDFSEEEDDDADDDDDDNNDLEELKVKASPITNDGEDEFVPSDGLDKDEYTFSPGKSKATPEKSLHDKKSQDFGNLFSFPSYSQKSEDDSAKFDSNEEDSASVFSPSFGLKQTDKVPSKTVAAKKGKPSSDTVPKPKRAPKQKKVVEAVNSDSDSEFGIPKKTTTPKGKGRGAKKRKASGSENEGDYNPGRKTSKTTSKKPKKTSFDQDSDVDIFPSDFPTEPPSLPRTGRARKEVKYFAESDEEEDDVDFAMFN

Row | SMILES | IC50 (MCF7 [1]) [µM] | Activity (MCF7 [2]) [%] | inhibition (MCF7 [3]) [%] | Activity (MCF7 [7]) [%] | Activity (MCF7 [8]) [%] | IC50 [9] [µM] | Activity (MCF7 [10]) [%] | other results
1 | CC(=O)Oc1c(Br)cc(Br)cc1/C=C1\N=C(c2ccccc2)n2c(=S)nc(C)n2C1=O | > 100 |  |  |  |  |  |  | 
2 | COc1cc(C2=N/C(=C\c3cc(Br)cc(Br)c3OC(C)=O)C(=O)NN2c2ncc(-c3ccc(Br)cc3)s2)cc(OC)c1OC | 3.16 |  |  |  |  |  |  | 
3 | COc1ccc(C(=O)N/C(=C/c2cc(Br)cc(Br)c2OC(C)=O)C(=O)NNC(N)=S)cc1OC | 8.97 |  |  |  |  |  |  | 
4 | COc1cc(C2=N/C(=C\c3cc(Br)cc(Br)c3OC(C)=O)C(=O)n3c(C)nc(=S)n32)cc(OC)c1OC | 3.07 | 3.38 | 88.2 | 1.73 | 4.53 | 58.7 | 7.58 | IC50 (DNA topoisomerase 2-beta [4]): 0.11 µM; Activity (MCF7 [5]): 88.4%; fold change (FC) (MCF7 [6]): 5.1; fold change (FC) (MCF7 [11]): 31.3; fold change (FC) (MCF7 [12]): 0.9; Activity (MCF7 [13]): Active
5 | COc1ccc(C2=N/C(=C\c3cc(Br)cc(Br)c3OC(C)=O)C(=O)NN2c2ccccc2)cc1OC | 5.39 |  |  |  |  |  |  | 
6 | COc1ccc(C2=N/C(=C\c3cc(Br)cc(Br)c3OC(C)=O)C(=O)NN2c2ncc(-c3ccccc3)s2)cc1OC | 4.33 |  |  |  |  |  |  | 
7 | CC(=O)Oc1c(Br)cc(Br)cc1/C=C(/NC(=O)c1ccccc1)C(=O)NNC(N)=S | 16.8 |  |  |  |  |  |  | 
8 | COc1cc([C@@H]2c3cc4c(cc3[C@H](O)[C@H]3COC(=O)[C@H]23)OCO4)cc(OC)c1OC [PODOFILOX] | 2.21 | 4.19 | 96.3 | 2.06 | 7.02 | 22.4 | 7.58 | Activity (MCF7 [5]): 84.61%
9 | COc1ccc(C2=N/C(=C\c3cc(Br)cc(Br)c3OC(C)=O)C(=O)NN2c2ncc(-c3ccc(Br)cc3)s2)cc1OC | 3.28 |  |  |  |  |  |  | 
10 | CC(=O)Oc1c(Br)cc(Br)cc1/C=C1\N=C(c2ccccc2)N(c2ncc(-c3ccccc3)s2)NC1=O | 38.3 |  |  |  |  |  |  | 
11 | CC(=O)Oc1c(Br)cc(Br)cc1/C=C1\N=C(c2ccccc2)N(C(N)=S)NC1=O | 28.5 |  |  |  |  | 80.1 |  | 
12 | COc1cc(C2=N/C(=C\c3cc(Br)cc(Br)c3OC(C)=O)C(=O)NN2C(N)=S)cc(OC)c1OC | 0.36 | 4.78 | 44.4 | 3.66 | 10.88 | 61.3 | 8.69 | Ratio IC50 (DNA topoisomerase 2-beta [14]): 2.2; fold change (FC) (MCF7 [15]): 1.7; IC50 (DNA topoisomerase 2-beta [4]): 0.0317 µM; Activity (MCF7 [5]): 78.79%; Ratio (MCF7 [16]): 1.25; Activity (MCF7 [17]): Active; fold change (FC) (MCF7 [6]): 8.1; fold change (FC) (MCF7 [11]): 21.6; fold change (FC) (MCF7 [12]): 3.2; Activity (MCF7 [13]): Active; Ratio IC50 (MCF7 [18]): 6; Activity (MCF7 [19]): Active; Activity (MCF7 [20]): Active; Activity (MCF7 [21]): Active
13 | COc1cc(C2=N/C(=C\c3cc(Br)cc(Br)c3OC(C)=O)C(=O)NN2c2ccccc2)cc(OC)c1OC | 0.35 | 5.47 | 33.4 | 3.14 | 7.85 | 44.3 | 11.28 | Ratio IC50 (DNA topoisomerase 2-beta [14]): 5.3; fold change (FC) (MCF7 [15]): 2.1; IC50 (DNA topoisomerase 2-beta [4]): 0.0126 µM; Activity (MCF7 [5]): 81.41%; Ratio (MCF7 [16]): 1.5; Activity (MCF7 [17]): Active; fold change (FC) (MCF7 [6]): 1.9; fold change (FC) (MCF7 [11]): 18; fold change (FC) (MCF7 [12]): 3.9; Activity (MCF7 [13]): Active; Ratio IC50 (MCF7 [18]): 6; Activity (MCF7 [19]): Active; Activity (MCF7 [20]): Active; Ratio (MCF7 [22]): 1.4; Activity (MCF7 [21]): Active
14 | COc1cc(C(=O)N/C(=C/c2cc(Br)cc(Br)c2OC(C)=O)C(=O)NNC(N)=S)cc(OC)c1OC | 2.85 | 4.66 | 62.3 | 2.11 | 5.62 |  | 6.91 | IC50 (DNA topoisomerase 2-beta [4]): 0.0814 µM; Activity (MCF7 [17]): Active; fold change (FC) (MCF7 [6]): 4.2; fold change (FC) (MCF7 [11]): 24.1; fold change (FC) (MCF7 [12]): 2.2; Activity (MCF7 [13]): Active
15 | COc1ccc(C2=N/C(=C\c3cc(Br)cc(Br)c3OC(C)=O)C(=O)n3c(C)nc(=S)n32)cc1OC | 6.84 |  |  |  |  |  |  | 
16 | CC(=O)Oc1c(Br)cc(Br)cc1/C=C1\N=C(c2ccccc2)N(c2ncc(-c3ccc(Br)cc3)s2)NC1=O | 9.49 |  |  |  |  |  |  | 
17 | COc1cc(C2=N/C(=C\c3cc(Br)cc(Br)c3OC(C)=O)C(=O)NN2c2ncc(-c3ccccc3)s2)cc(OC)c1OC | 0.41 | 3.64 | 55.2 | 3.31 | 6.33 | 77.4 | 7.79 | Ratio IC50 (DNA topoisomerase 2-beta [14]): 10.2; fold change (FC) (MCF7 [15]): 1.75; IC50 (DNA topoisomerase 2-beta [4]): 0.00685 µM; Activity (MCF7 [5]): 84.46%; Activity (MCF7 [17]): Active; fold change (FC) (MCF7 [6]): 9.2; fold change (FC) (MCF7 [11]): 15.6; fold change (FC) (MCF7 [12]): 3.4; Activity (MCF7 [13]): Active; Ratio IC50 (MCF7 [18]): 6; Activity (MCF7 [19]): Active; Activity (MCF7 [20]): Active; Activity (MCF7 [21]): Active
18 | COc1ccc(C2=N/C(=C\c3cc(Br)cc(Br)c3OC(C)=O)C(=O)NN2C(N)=S)cc1OC | 13.4 |  |  |  |  |  |  | 
19 | CC(=O)Oc1c(Br)cc(Br)cc1/C=C1\N=C(c2ccccc2)N(c2ccccc2)NC1=O | 19.4 |  |  |  |  |  |  | 
